Columns and labels:
Mus musculus [1] = organism: Mus musculus; test: Reduction in serum uric acid level in acute hyperuricemia state Kunming mouse model assessed as SUA level by measuring decrease ratio relative to control; type: functional; parameters: concentration or dose not given beside the values
[2] = biological target: T1, Solute carrier family 2, facilitated glucose transporter member 9 (Mus musculus, UniProt Q3T9X0); test: Inhibition of mouse EGFP-tagged GLUT9 expressed in HEK293T cells assessed as inhibition rate by measuring relative current by patch clamp electrophysiological analysis relative to control; type: cell-based
T1 sequence (Q3T9X0 whole entry): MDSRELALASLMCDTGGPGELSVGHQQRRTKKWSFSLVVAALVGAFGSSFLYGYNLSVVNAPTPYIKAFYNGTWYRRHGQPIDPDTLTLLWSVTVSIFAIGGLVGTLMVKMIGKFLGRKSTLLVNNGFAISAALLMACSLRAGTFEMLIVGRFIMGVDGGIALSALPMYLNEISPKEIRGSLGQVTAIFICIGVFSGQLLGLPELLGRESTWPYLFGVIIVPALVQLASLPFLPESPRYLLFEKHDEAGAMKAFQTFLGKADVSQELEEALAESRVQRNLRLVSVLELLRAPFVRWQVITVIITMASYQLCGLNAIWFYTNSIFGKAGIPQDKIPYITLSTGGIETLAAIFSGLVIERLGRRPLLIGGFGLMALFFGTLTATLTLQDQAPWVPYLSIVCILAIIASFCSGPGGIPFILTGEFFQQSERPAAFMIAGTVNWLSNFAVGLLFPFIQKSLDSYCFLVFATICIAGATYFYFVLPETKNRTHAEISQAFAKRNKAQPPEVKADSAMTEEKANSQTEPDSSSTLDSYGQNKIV

[3] = biological target: Xanthine dehydrogenase/oxidase (Bos taurus, UniProt P80457); test: Inhibition of bovine XOD using xanthine as substrate assessed as inhibitory ratio at 10 uM by spectrophotometric analysis relative to control; settings: cattle
Mus musculus [4] = test: Reduction in serum uric acid level in acute hyperuricemia state Kunming mouse model assessed as SUA level at 0.5 mg/kg, po (reference value: 1037 +/- 106.59 uM); type: functional
Mus musculus [5] = test: Reduction in serum uric acid level in acute hyperuricemia state Kunming mouse model assessed as SUA level at 0.25 mg/kg, po (reference value: 1037 +/- 106.59 uM); type: functional
Mus musculus [6] = test: Reduction in serum uric acid level in acute hyperuricemia state Kunming mouse model assessed as SUA level by measuring decrease ratio at 0.5 mg/kg, po relative to control; type: functional; parameters: scale not given: the % may be the effect or the level left
Mus musculus [7] = organism: Mus musculus; test: Reduction in serum uric acid level in chronic hyperuricemia state Kunming mouse model assessed as SUA level (reference value: 660.33 +/- 103.57 uM); type: functional
Cytochrome P450 1A2 = biological target: T2, Cytochrome P450 1A2 (Homo sapiens, UniProt P05177); test: Inhibition of CYP1A2 in human liver microsomes measured after 40 mins incubation by LC-MS/MS analysis; type: ADME, Microsome
T2 sequence (P05177 whole entry): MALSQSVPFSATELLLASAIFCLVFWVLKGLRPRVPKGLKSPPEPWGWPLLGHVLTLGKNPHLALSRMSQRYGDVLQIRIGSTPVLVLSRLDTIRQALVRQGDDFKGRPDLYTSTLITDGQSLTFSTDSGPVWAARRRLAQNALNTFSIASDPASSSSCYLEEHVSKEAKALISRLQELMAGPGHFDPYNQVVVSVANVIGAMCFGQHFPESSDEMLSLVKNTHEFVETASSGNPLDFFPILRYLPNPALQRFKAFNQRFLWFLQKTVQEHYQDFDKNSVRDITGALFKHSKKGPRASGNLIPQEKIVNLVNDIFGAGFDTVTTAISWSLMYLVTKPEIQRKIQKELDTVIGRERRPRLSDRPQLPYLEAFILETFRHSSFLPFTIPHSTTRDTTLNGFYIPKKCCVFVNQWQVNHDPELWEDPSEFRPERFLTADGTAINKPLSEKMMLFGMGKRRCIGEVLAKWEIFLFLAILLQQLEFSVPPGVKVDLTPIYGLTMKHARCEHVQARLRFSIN

Cytochrome P450 2C9 = Cytochrome P450 2C9 (Homo sapiens, UniProt P11712); test: Inhibition of CYP2C9 in human liver microsomes measured after 40 mins incubation by LC-MS/MS analysis; type: ADME, Microsome
Cytochrome P450 2C19 = Cytochrome P450 2C19 (Homo sapiens, UniProt P33261); test: Inhibition of CYP2C19 in human liver microsomes measured after 40 mins incubation by LC-MS/MS analysis; type: ADME, Microsome
[8] = AUC (0 to t) in Sprague-Dawley rat at 2 mg/kg, po measured upto 24 hrs by LC-MS/MS-AR analysis; type: ADME, organism-based; settings: in vivo
[9] = MRT (0 to infinity) in Sprague-Dawley rat at 2 mg/kg, po measured upto 24 hrs by LC-MS/MS-AR analysis; type: ADME, organism-based; settings: in vivo
[10] = Half life in Sprague-Dawley rat at 2 mg/kg, po measured upto 24 hrs by LC-MS/MS-AR analysis; type: ADME, organism-based; settings: in vivo
[11] = Tmax in Sprague-Dawley rat at 2 mg/kg, po measured upto 24 hrs by LC-MS/MS-AR analysis; type: ADME, organism-based; settings: in vivo
[12] = Cmax in Sprague-Dawley rat at 2 mg/kg, po measured upto 24 hrs by LC-MS/MS-AR analysis; type: ADME, organism-based; settings: in vivo
[13] = Oral bioavailability in Sprague-Dawley rat at 2 mg/kg measured upto 24 hrs by LC-MS/MS-AR analysis; type: ADME, organism-based; settings: in vivo
[14] = AUC (0 to infinity) in Sprague-Dawley rat at 2 mg/kg, iv measured upto 24 hrs by LC-MS/MS-AR analysis; type: ADME, organism-based; settings: in vivo
[15] = MRT (0 to infinity) in Sprague-Dawley rat at 2 mg/kg, iv measured upto 24 hrs by LC-MS/MS-AR analysis; type: ADME, organism-based; settings: in vivo
[16] = Half life in Sprague-Dawley rat at 2 mg/kg, iv measured upto 24 hrs by LC-MS/MS-AR analysis; type: ADME, organism-based; settings: in vivo
[17] = Tmax in Sprague-Dawley rat at 2 mg/kg, iv measured upto 24 hrs by LC-MS/MS-AR analysis; type: ADME, organism-based; settings: in vivo
[18] = Acute toxicity in Kunming mouse assessed as convulsions at 250 to 1000 mg/kg, po administered as single dose monitored for 7 days; type: organism-based; settings: in vivo, 168 h, dose 250-1000 mg/kg, time 7 day
[19] = Acute toxicity in Kunming mouse assessed as lethargy at 250 to 1000 mg/kg, po administered as single dose monitored for 7 days; type: organism-based; settings: in vivo, 168 h, dose 250-1000 mg/kg, time 7 day
[20] = Acute toxicity in Kunming mouse assessed as anorexia at 250 to 1000 mg/kg, po administered as single dose monitored for 7 days; type: organism-based; settings: in vivo, 168 h, dose 250-1000 mg/kg, time 7 day
[21] = Acute toxicity in Kunming mouse assessed as change in body weight at 250 to 1000 mg/kg, po administered as single dose monitored for 7 days; type: organism-based; settings: in vivo, 168 h, dose 250-1000 mg/kg, time 7 day
[22] = Subacute toxicity in Kunming female mouse assessed as change in body weight at 100 mg/kg, po administered every other day for 14 days; type: organism-based; settings: in vivo, 336 h, time 14 day
[23] = Toxicity in Kunming female mouse assessed as pathological changes at 100 mg/kg, po administered every other day for 14 days by H and E staining based assay; type: organism-based; settings: in vivo, 336 h, time 14 day
[24] = Toxicity in Kunming female mouse assessed as renal injury at 100 mg/kg, po administered every other day for 14 days by H and E staining based assay; type: organism-based; settings: in vivo, 336 h, time 14 day

Cytochrome P450 2C19, sequence (P33261 whole entry): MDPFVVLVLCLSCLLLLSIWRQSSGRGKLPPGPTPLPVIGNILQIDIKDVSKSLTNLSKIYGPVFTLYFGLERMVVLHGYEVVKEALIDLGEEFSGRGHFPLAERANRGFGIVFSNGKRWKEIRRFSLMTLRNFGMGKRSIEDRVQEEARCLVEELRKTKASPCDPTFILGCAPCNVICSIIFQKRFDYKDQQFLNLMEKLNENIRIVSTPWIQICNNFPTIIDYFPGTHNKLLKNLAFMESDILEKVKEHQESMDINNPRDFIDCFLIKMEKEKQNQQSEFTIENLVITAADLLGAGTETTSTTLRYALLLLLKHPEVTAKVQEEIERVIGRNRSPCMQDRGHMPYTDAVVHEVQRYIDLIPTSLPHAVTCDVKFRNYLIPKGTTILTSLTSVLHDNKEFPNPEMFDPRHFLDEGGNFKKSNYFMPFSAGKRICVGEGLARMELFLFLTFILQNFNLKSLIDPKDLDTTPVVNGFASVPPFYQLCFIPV
Xanthine dehydrogenase/oxidase, sequence (P80457 whole entry): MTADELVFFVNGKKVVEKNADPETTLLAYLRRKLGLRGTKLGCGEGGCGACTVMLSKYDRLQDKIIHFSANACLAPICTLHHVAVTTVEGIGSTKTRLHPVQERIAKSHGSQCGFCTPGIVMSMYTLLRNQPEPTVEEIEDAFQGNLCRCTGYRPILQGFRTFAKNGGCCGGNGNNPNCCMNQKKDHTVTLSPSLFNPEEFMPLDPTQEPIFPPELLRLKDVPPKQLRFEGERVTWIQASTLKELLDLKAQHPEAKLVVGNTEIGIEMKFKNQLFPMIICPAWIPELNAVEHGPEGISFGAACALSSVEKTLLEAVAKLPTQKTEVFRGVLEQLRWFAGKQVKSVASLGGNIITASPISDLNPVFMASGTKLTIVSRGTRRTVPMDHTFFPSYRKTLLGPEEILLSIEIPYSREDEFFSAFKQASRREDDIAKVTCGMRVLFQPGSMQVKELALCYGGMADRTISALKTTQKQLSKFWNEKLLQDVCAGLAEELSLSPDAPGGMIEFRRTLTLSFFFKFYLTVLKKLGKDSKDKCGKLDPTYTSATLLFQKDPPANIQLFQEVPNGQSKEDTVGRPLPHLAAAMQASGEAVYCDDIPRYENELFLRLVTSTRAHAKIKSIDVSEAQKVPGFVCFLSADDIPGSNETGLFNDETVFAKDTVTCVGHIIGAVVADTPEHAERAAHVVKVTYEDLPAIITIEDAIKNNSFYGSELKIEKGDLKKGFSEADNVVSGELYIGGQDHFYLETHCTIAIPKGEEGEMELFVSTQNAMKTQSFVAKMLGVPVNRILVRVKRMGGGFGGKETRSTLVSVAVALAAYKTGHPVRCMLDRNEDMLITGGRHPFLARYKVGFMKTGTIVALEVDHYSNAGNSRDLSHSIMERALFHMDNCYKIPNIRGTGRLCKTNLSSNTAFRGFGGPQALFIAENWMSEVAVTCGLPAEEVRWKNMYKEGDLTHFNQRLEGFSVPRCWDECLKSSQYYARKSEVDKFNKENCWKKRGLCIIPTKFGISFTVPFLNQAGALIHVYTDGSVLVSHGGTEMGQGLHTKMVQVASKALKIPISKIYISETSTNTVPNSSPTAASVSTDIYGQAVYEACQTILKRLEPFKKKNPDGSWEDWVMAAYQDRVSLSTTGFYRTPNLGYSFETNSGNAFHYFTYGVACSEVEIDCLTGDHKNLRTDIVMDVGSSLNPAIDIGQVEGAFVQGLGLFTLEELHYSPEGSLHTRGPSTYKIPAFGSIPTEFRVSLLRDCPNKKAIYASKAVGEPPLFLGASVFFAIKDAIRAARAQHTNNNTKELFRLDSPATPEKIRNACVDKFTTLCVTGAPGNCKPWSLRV
Cytochrome P450 2C9, sequence (P11712 whole entry): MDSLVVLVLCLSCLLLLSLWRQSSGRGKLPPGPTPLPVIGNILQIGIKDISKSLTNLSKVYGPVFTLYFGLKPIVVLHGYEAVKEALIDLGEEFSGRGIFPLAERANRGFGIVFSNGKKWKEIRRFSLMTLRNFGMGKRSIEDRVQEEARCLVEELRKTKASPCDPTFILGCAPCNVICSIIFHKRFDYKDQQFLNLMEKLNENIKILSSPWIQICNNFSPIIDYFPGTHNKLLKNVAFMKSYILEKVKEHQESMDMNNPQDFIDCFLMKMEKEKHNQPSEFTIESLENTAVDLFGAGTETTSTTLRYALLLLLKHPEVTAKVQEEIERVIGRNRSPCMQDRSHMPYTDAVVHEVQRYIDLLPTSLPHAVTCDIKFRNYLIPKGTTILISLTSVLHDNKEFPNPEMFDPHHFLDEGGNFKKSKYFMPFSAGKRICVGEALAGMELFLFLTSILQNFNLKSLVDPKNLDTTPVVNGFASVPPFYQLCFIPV

Structure (SMILES): O=C(O)CCCSc1nc(Nc2ccc(C3CC3)c3ccccc23)c2sccc2n1
- Activity (Mus musculus [1]): 93.2%
- IC50 [2]: 18.2 µM
- inhibition at 10 µM [3]: 11.7%
- Activity (Mus musculus [4]): 418.6 µM
- Activity (Mus musculus [5]): 945 µM
- Activity (Mus musculus [6]): 66.49%
- Activity (Mus musculus [7]): 241 µM
- IC50 (Cytochrome P450 1A2): 9.48 µM
- IC50 (Cytochrome P450 2C9): 2 µM
- IC50 (Cytochrome P450 2C19): 5.93 µM
- AUC(0-t) at 24 h [8]: 1810 ng·h/mL
- MRT inf [9]: 2.5 h
- half-life [10]: 1.8 h
- Tmax [11]: 0.25 h
- Cmax [12]: 1270 ng/mL
- F [13]: 20.1%
- AUC [14]: 1922.9 ng·h/mL
- MRT inf [15]: 0.5 h
- half-life [16]: 1.6 h
- Tmax [17]: 4.98 min
- Activity [18]: Non-Toxic
- Activity [19]: Non-Toxic
- Activity [20]: Non-Toxic
- Activity [21]: Toxic
- Activity [22]: Toxic
- Activity [23]: Non-Toxic
- Activity [24]: Toxic

Source: ChEMBL document CHEMBL5528083, “Discovery of a Novel Thienopyrimidine Compound as a Urate Transporter 1 and Glucose Transporter 9 Dual Inhibitor with Improved Efficacy and Favorable Druggability” (J Med Chem, 2024)
